Assay results from US9051326B2, “Pyrazoline derivatives and their use as selective androgen receptor modulators” (NOVARTIS AG, priority 2011, dated 2015).
Like-named read-outs stand apart in the source and are kept apart here.

Tests used:
[1] = test system: orchidectomized male Wistar rats; assay: In vivo modified Hershberger assay (Test 2); parameters: species or system rat; conditions: for luteinizing hormone (LH) levels / weights of levator ani compared to prostate: 14 days treatment; for luteinizing hormone (LH) levels: in comparison to ORX animals; for plasma drug concentration: day 15, 3 hours after last dose; for weights of levator ani compared to prostate: orchidectomized male rats
Method: The test article Testosterone Propionate is dissolved using 10% ethanol, 90% corn oil. Ostarine is suspended in 1% CMC, 0.1% Tween-80, water. Compounds of examples 1 and 5 are dissolved in 50% PEG 200 and 50% of saline. Ostarine is administered orally at 1 ml/kg volume. Testosterone Propionate, Compounds of examples 1 and 5 are administered subcutaneously to 14 days prior orchidectomized male rats at 1 ml per kg body weight for a period of 14 days. Each group of 6 rats receives dosages of 0.01, 0.1, 1 and 10 mg/kg. 6 animals each serves as sham control and ORX control and are administered vehicle at 1 ml/kg.
Testosterone Propionate is subcutaneously administered at doses of 0.03, 0.1, 0.3, 1.3 and 10 mg/kg. Ostarine is given orally at doses of 0.001, 0.003, 0.01, 0.03, 0.1, 0.3, 1.3 and 10 mg/kg.
The various investigations like mortality, clinical signs, body weight, food consumption, drug concentration analysis (day 15), clinical pathology and gross pathology parameters are performed on all groups.
Evaluation of Testosterone Propionate, Ostarine, examples 1 and 5 in modified Hershberger assay in male wistar rats was conducted at the Department of Preclinical Biology, Aurigene Discovery Technologies Ltd., Bangalore, India.

androgen receptor (AR) = target: T1, androgen receptor (AR) (Homo sapiens, UniProt P10275); assay: AR transcriptional activation luciferase reporter assay in C2C12 cells (Test 1); format: cell-based
T1 construct: transfecting C2C12 cells with a plasmid containing full-length AR along with an AR response element linked to luciferase; expressed in transfected cells; host or cells: mouse myoblastic C2C12 cells (ATCC CRL-1772), transient transfection with Lipofectamine 2000
T1 sequence (P10275 1-920): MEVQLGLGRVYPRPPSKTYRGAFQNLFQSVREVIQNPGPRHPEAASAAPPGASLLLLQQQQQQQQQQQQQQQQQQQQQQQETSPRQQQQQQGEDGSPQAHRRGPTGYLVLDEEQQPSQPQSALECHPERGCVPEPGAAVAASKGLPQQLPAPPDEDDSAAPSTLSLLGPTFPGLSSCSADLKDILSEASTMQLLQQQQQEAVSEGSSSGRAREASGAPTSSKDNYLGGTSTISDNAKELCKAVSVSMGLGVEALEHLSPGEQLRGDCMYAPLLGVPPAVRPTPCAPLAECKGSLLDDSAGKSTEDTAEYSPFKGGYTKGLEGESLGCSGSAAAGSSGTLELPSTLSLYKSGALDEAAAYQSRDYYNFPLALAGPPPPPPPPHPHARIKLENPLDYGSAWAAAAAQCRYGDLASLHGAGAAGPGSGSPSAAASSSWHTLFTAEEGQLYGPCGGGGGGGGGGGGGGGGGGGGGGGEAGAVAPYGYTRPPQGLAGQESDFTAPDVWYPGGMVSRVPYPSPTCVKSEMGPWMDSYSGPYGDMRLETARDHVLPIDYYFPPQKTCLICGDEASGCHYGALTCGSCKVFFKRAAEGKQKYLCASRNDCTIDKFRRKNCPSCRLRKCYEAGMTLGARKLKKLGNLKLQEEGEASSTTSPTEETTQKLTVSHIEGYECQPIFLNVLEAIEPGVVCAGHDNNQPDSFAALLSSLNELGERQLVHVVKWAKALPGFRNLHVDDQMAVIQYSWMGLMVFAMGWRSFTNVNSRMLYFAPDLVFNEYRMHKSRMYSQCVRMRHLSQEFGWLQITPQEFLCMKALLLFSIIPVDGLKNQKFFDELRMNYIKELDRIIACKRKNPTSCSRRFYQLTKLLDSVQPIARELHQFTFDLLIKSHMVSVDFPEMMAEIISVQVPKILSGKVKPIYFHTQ
Method: A suitable assay to determine the ability of a ligand to transcriptionally activate androgen receptor (AR) is carried out using mouse myoblastic C2C12 cells. The assay involves transfecting C2C12 cells with a plasmid containing full-length AR along with an AR response element linked to luciferase (2XIDR17). The luminescence read-out at the end of the assay is measured using Victor 3 and is a direct measure of the transcriptional activity. The assay has been validated using the reference compound, BMS-564929, for which EC50 values have been reported in a similar set-up. Other tool compounds that have been used for assay validation are GSK-420A, Andarine, putative Ostarine, and LGD-2226.
C2C12 cells were obtained from ATCC (Cat # CRL-1772) and maintained in DMEM modified to contain 4 mM L-glutamine, 4.5 g/L glucose, 1 mM sodium pyruvate and 1.5 g/L sodium bicarbonate and 10% FBS.
AR-FL in pcDNA 3.1(+) and 2XIDR17 in pGL4.26 plasmids prepared using Genelute plasmid miniprep kit from Sigma Cat # PLED35
• C2C12 cells were seeded in a 96-well plate in DMEM (Dulbecco's Modified Eagle Medium) without phenol red and containing 10% CS-FBS (Charcoal-stripped Fetal Bovine Serum) at 8000 cells/well. • The next day, cells were transfected with an equimolar ratio of (Androgen Receptor-Full length) AR-FL and 2XIDR17-Luciferase at a total plasmid concentration of 200 ng/well using Lipofectamine 2000 following manufacturer's protocol. • For the transfection, 83 ng of AR-FL and 117 ng of 2XIDR17-Luciferase were in 12.5 μl of OptiMEM—Mix A. 0.4 μl of Lipofectamine 2000 was added to 12.5 μl of OptiMEM and incubated for 5 min at room temperature—Mix B. The two mixes A and B were mixed and incubated at room temperature for an additional fifteen minutes. An additional 50 μl of OptiMEM was added, gently mixed and this mixture was added to the cells in the 96-well plate. The above quantities are requirements per well of a 96-well plate. Master mixes were made for the entire plate, with proportional quantity of reagents being used. • 5 h after transfection, compounds were added to the wells in DMEM without phenol red and containing 10% CS-FBS, maintaining a final DMSO concentration of 0.5%. A typical dose response curve starts at 10 μM and includes a 7-point, log dilution, done in triplicates. • After overnight incubation with the compounds, 100 ul of working solution of Steadyglow reagent was added to the wells. • The plates were placed in a shaker for 15 min at the end of which the lysate containing luciferase was transferred to a white flat-bottom plate and read under a luminescence setting in Victor. • Background subtracted counts (Luminescence from DMSO control wells is considered the background) are used to calculate percentage activity, expressed relative to activity with 1 μM (Dihydrotestosterone) DHT (at least two sets of triplicates for 1 μM DHT are included per plate). Data Fitting: • The EC50 curves for the compounds for 8 compound concentrations were fitted by the respective function using non-linear least-squares regression in Graphpad Prism 4.0 (Graphpad Software, San Diego, Calif., USA).

Row | Structure (SMILES) | weights of levator ani compared to prostate [1] | EC50 (androgen receptor (AR)) [nM] | also measured
1 | C[C@](O)(COc1ccc(C#N)cc1)C(=O)Nc1ccc(C#N)c(C(F)(F)F)c1 [Ostarine, reference compound] | dose dependent selective increase in weights of levator ani compared to prostate | – | luteinizing hormone (LH) levels [1]: concurrent decrease of LH levels; plasma drug concentration [1]: dose dependent increase
2 | CO[C@@H]1C(c2ccc(C#N)c(Cl)c2C)=NN2CC[C@H](O)[C@@H]12 [Example 1, 2-chloro-4-((3S,3aS,4S)-4-hydroxy-3-methoxy-3a,4,5,6-tetrahydro-3H-pyrrolo[1,2-b]pyrazol-2-yl)-3-methylbenzonitrile] | dose dependent selective increase in weights of levator ani compared to prostate | – | EC50 (androgen receptor (AR); mouse myoblastic C2C12 cells transfected with AR-FL and 2XIDR17-luciferase, read-out: Biological activity (C2C12 cell) EC50): 0.5 nM; luteinizing hormone (LH) levels [1]: concurrent decrease of LH levels; plasma drug concentration [1]: dose dependent increase
3 | CO[C@@H]1C(c2ccc(C#N)c(Cl)c2C)=NN2CC(O)(C(F)(F)F)C[C@@H]12 (stereo partly drawn) [Example 11, 2-chloro-4-((3S,3aS)-5-hydroxy-3-methoxy-5-(trifluoromethyl)-3a,4,5,6-tetrahydro-3H-pyrrolo[1,2-b]pyrazol-2-yl)-3-methylbenzonitrile] | – | – | % Biological activity (C2C12 cell) 100 nM (androgen receptor (AR); 100 nM compound, activity relative to 1 μM DHT): 24%; % Biological activity (C2C12 cell) 5 μM (androgen receptor (AR); 5 μM compound, activity relative to 1 μM DHT): 33%
4 | COCCO[C@@H]1C(c2ccc(C#N)c(Cl)c2C)=NN2CC(F)(F)C[C@@H]12 [Example 24, 2-chloro-4-((3S,3aS)-5,5-difluoro-3-(2-methoxyethoxy)-3a,4,5,6-tetrahydro-3H-pyrrolo[1,2-b]pyrazol-2-yl)-3-methylbenzonitrile] | – | 5.6 | –
5 | COCCO[C@@H]1C(c2ccc(C#N)c(Cl)c2C)=NN2C[C@H](O)C[C@@H]12 [Example 26] | – | 158 | –
6 | CCC(=O)O[C@H]1CC[C@H]2[C@@H]3CCC4=CC(=O)CC[C@]4(C)[C@H]3CC[C@]12C [Testosterone Propionate, reference compound] | did not show any selectivity on levator ani versus prostate | – | –
7 | COCCCO[C@@H]1C(c2ccc(C#N)c(Cl)c2C)=NN2CC(=O)C[C@@H]12 [Example 30] | – | 56 | –
8 | COCCCO[C@@H]1C(c2ccc(C#N)c(Cl)c2C)=NN2CC(F)(F)C[C@@H]12 [Example 31] | – | 11.4 | –
9 | COCCO[C@@H]1C(c2ccc(C#N)c(Cl)c2C)=NN2CC[C@@H](F)[C@@H]12 [Example 22, 2-chloro-4-((3S,3aR,4R)-4-fluoro-3-(2-methoxyethoxy)-3a,4,5,6-tetrahydro-3H-pyrrolo[1,2-b]pyrazol-2-yl)-3-methylbenzonitrile] | – | 0.98 | –
10 | CO[C@@H]1C(c2ccc(C#N)c(Cl)c2C)=NN2C[C@@H](O)C[C@@H]12 [Example 18, 2-chloro-4-((3S,3aS,5S)-5-hydroxy-3-methoxy-3a,4,5,6-tetrahydro-3H-pyrrolo[1,2-b]pyrazol-2-yl)-3-methylbenzonitrile] | – | – | activity at 5 μM concentration (C2C12 cell) (androgen receptor (AR); 5 μM compound, symbol defined in table footnote): ** (at 5 μM concentration, <10% activity)
11 | CCO[C@@H]1C(c2ccc(C#N)c(Cl)c2C)=NN2CC[C@H](O)[C@@H]12 [Example 5, 2-chloro-4-((3S,3aS,4S)-3-ethoxy-4-hydroxy-3a,4,5,6-tetrahydro-3H-pyrrolo[1,2-b]pyrazol-2-yl)-3-methylbenzonitrile] | dose dependent selective increase in weights of levator ani compared to prostate | 1.2 | luteinizing hormone (LH) levels [1]: concurrent decrease of LH levels; plasma drug concentration [1]: dose dependent increase
